This assay deals with T1, hEAAT2 mutant S441G (Homo sapiens, UniProt P43004, S441G).
T1 construct: Strep Tag II (N); superfolder GFP (sfGFP) (N); expressed in transfected cells; host or cells: HEK293T
The assay can be described thus: whole-cell patch-clamp, hEAAT2 mutant S441G in HEK293T cells. The class given is cell-based. The note with it: 0 mV; for WAY-213613-inhibited current, normalized (MEAN): S441G. On the procedure:
Human embryonic kidney 293T (HEK293T) cells were cultured in Dulbecco’s Modified Eagle Medium (DMEM, Gibco) media supplemented with 15% (v/v) fetal bovine serum (FBS, PAN-Biotech) at 37 °C with 5% CO2. HEK293T cells were grown in the culture dishes (d = 3.5 cm) (Thermo Fisher Scientific) for 24 h and then 1 μg hEAAT2 wild-type and mutant plasmids for per dishes were used to transiently transfect HEK293T using 0.7 μg Lipofectamine 2000 Reagent (Thermo Fisher Scientific). Cells were analyzed using electrophysiological experiments between 24 and 40 h after transfection at room temperature (21–25 °C).
Electrophysiological experiments were performed as described previously with a minor modification. External buffer contained 140 mM NaCl, 2 mM MgCl2, 2 mM CaCl2, and 10 mM HEPES (pH = 7.4 with NaOH and osmolarity of ∼310 mosmol L^−1) and while internal pipette solution comprised of 130 mM NaSCN, 2 mM MgCl2, 10 mM EGTA, 10 mM HEPES (pH = 7.4 with NaOH and osmolarity of ∼310 mosmol L^−1) and 10 mM glutamate. 50 mM WAY-213613 stock solutions were prepared in dimethyl sulfoxide (DMSO), followed by dilutions to working concentrations with the above-mentioned external buffer. […] Whole cell patch-clamp experiment recordings were made from isolated GFP-positive HEK293T cells (hEAAT2 wild type and mutants). In all, 3–6 MΩ was used to fire a polished pipette (Sutter Instrument). […] Cells were immersed in the above-mentioned external buffer supplemented with a specified concentration of glutamate or WAY-213613. Glutamate-induced anion current, Na^+-dependent anion leak current and glutamate transport current or WAY-213613 inhibited anion leak currents were recorded using an EPC-10 amplifier (HEKA Electronic) at a 20 kHz sample rate with low pass filter at 5 kHz. All experiments were executed at 0 mV. After the cell current was stabilized, glutamate or WAY-213613 was sustained at the indicated concentrations from external dosing for at least 6 s. Subsequently, the cell was washed away with external buffer to start a new round of applications or end the experiment. The plateau currents were used for the following calculations. For analysis, the data was acquired by PatchMaster program (HEKA Electronic) at 5 s after recording. Nonlinear dose–response relationships were fitted into a Michaelis–Menten-like equation shown as below to obtain the apparent Km and Ki values in the presence of glutamate or WAY-213613.1 I/Imax=Km/i/C+Km/i In this equation, I represent the current at different glutamate or inhibitor concentrations, and Imax represents the maximal current at the saturating concentration of glutamate or inhibitor. [C] represents the concentration of glutamate or inhibitor. Km/i represents the apparent constant.

Each structure is given as a SMILES string.

T1 sequence (P43004 whole entry S441G): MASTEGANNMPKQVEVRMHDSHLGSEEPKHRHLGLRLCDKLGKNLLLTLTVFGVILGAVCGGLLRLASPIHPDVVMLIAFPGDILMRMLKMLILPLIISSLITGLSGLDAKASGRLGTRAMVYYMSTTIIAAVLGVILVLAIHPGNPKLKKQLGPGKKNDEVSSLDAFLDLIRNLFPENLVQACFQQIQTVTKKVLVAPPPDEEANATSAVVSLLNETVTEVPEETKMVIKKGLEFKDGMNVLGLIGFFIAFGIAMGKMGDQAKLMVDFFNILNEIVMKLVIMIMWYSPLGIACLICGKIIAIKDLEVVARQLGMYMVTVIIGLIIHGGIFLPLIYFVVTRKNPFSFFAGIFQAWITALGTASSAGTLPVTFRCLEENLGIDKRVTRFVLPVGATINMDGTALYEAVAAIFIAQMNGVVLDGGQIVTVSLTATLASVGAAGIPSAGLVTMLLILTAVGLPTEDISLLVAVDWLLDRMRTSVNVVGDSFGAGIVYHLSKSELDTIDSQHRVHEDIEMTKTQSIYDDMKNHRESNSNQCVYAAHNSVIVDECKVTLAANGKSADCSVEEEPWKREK

For the molecule `NC(CC(=O)Nc1ccc(Oc2cc(F)c(F)cc2Br)cc1)C(=O)O` (centres unmarked) [WAY-213613], the “WAY-213613-inhibited current, normalized (MEAN)” value (0.03 μM WAY-213613, normalized to current at 30 μM) is given as 0.08476; the “WAY-213613-inhibited current, normalized (MEAN)” value (0.1 μM WAY-213613, normalized to current at 30 μM) stood at 0.2697; the “WAY-213613-inhibited current, normalized (MEAN)” value (0.3 μM WAY-213613, normalized to current at 30 μM) was 0.5414; the “WAY-213613-inhibited current, normalized (MEAN)” value (1 μM WAY-213613, normalized to current at 30 μM) came to 0.7785; the “WAY-213613-inhibited current, normalized (MEAN)” value (3 μM WAY-213613, normalized to current at 30 μM) was 0.8947; the “WAY-213613-inhibited current, normalized (MEAN)” value (10 μM WAY-213613, normalized to current at 30 μM) came to 0.9736. The “WAY-213613-inhibited current, normalized (MEAN)” value (30 μM WAY-213613, normalization reference) is given as 1. In addition, under “S441G mutant, read-out: apparent Ki”, the Ki was 260 nM.

Values taken from publication PMC9184463, “Structural basis of ligand binding modes of human EAAT2” (Nature Communications, 2022).
